ChEMBL document CHEMBL1909046, “DrugMatrix in vitro pharmacology data”

Assays:
[1] = DRUGMATRIX: Sigma2 radioligand binding (ligand: [3H] Ifenprodil); type: cell membranes, Rattus norvegicus, Wistar, Brain, Membrane; conditions: Not Active = under 50% inhibition at 10 µM
[2] = DRUGMATRIX: Calcium Channel Type L, Phenylalkylamine radioligand binding (ligand: [3H] (-)-Desmethoxyverapamil (D-888)); type: cell membranes, Rattus norvegicus, Wistar, Brain, Membrane; conditions: Not Active = under 50% inhibition at 10 µM
[3] = target: T1, C-X-C chemokine receptor type 2 (Homo sapiens, UniProt P25025); type: cell membranes, Membrane; conditions: cho-k1; further: in other assays of this panel Not Active means under 50% inhibition at 10 µM
T1 sequence (P25025 whole entry): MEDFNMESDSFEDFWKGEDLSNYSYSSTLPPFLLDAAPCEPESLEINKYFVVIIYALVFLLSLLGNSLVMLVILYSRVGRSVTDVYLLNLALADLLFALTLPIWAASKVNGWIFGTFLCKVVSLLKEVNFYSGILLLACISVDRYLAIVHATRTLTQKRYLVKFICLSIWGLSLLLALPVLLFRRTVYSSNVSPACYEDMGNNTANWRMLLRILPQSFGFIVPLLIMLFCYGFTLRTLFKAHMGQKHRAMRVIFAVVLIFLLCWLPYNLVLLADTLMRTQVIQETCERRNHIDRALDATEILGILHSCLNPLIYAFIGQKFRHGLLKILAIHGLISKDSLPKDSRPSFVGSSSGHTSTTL

[4] = target: T2, Neuropeptide Y receptor type 2 (Homo sapiens, UniProt P49146); type: cell membranes, Membrane; conditions: kan-ts; further: in other assays of this panel Not Active means under 50% inhibition at 10 µM
T2 sequence (P49146 whole entry): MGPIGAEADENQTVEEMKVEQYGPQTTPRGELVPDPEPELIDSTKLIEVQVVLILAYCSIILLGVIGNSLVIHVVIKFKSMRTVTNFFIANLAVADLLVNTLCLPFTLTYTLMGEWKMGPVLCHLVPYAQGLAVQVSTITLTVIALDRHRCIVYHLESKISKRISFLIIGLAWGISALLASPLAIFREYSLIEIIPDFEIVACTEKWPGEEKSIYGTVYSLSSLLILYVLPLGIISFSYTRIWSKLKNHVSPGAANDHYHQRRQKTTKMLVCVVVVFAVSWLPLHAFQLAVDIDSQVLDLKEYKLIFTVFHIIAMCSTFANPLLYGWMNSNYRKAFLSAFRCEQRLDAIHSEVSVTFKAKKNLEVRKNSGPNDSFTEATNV

Progesterone receptor = target: T3, Progesterone receptor (Bos taurus, UniProt Q690N0); test: DRUGMATRIX: Progesterone radioligand binding (ligand: [3H] R-5020); type: tissue-based, Uterus; conditions: Not Active = under 50% inhibition at 10 µM
T3 sequence (Q690N0 whole entry): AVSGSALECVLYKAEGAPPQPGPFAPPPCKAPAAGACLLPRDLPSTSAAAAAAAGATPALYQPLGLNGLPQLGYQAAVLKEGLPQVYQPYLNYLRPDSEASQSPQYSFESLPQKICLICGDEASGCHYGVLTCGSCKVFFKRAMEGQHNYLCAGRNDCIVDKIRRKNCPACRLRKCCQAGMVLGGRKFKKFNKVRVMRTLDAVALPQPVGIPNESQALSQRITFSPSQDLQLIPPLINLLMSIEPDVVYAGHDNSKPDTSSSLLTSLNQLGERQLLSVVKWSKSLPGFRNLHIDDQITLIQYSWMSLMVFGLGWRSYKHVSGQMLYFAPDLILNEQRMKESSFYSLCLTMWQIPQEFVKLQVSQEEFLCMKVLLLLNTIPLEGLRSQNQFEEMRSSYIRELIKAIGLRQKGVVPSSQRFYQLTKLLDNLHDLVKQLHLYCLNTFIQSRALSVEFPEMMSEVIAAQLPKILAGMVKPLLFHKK

Cytochrome P450 2C19 = Cytochrome P450 2C19 (Homo sapiens, UniProt P33261); conditions: bti-tn-5b1-4; further: in other assays of this panel Not Active means under 50% inhibition at 10 µM
Sequence of Cytochrome P450 2C19 (P33261 whole entry): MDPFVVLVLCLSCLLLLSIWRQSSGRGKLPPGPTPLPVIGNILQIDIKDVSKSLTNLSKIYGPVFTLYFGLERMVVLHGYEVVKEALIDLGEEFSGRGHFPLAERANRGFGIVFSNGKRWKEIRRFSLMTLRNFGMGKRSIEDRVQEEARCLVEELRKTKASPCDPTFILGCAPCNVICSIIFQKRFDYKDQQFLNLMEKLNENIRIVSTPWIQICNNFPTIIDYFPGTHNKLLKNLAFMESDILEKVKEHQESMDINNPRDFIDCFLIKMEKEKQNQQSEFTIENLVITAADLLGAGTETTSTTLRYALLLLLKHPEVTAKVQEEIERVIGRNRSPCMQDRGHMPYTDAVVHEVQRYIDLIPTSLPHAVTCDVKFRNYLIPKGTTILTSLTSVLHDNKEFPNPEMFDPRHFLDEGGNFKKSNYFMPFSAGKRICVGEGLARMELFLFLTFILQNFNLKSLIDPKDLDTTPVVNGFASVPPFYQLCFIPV

[5] = target: Voltage-gated inwardly rectifying potassium channel KCNH2 (Homo sapiens, UniProt Q12809); conditions: hek293; further: in other assays of this panel Not Active means under 50% inhibition at 10 µM
Sequence of Voltage-gated inwardly rectifying potassium channel KCNH2 (Q12809 whole entry): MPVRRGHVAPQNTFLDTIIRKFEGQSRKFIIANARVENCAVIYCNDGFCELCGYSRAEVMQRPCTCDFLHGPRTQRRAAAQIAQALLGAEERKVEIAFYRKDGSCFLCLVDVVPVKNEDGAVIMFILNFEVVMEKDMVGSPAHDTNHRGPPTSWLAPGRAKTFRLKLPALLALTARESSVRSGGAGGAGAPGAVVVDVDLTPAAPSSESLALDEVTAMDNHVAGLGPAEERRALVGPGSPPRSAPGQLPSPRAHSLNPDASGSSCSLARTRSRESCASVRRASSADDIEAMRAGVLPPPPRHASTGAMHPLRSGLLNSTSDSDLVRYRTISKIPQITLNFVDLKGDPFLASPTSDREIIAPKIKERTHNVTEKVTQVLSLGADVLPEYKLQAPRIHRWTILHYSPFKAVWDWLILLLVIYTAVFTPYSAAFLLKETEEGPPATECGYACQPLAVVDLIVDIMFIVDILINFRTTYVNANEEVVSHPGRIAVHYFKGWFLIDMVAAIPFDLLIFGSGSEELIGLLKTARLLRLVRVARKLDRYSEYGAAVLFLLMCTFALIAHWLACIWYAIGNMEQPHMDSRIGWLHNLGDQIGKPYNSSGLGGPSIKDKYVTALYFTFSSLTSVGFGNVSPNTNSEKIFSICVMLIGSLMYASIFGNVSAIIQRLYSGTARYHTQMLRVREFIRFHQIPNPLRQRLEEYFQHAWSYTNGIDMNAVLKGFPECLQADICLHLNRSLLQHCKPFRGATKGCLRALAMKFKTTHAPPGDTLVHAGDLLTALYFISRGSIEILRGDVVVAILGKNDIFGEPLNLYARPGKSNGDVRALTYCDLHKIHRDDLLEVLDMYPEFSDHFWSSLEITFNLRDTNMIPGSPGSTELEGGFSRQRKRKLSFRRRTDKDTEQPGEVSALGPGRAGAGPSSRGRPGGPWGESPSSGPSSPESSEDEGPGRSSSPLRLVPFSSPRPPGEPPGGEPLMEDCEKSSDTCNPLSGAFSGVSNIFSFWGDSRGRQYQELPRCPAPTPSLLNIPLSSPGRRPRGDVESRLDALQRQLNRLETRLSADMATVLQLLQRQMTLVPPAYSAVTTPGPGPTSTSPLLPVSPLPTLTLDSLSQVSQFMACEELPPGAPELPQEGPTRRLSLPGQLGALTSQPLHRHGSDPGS

COc1cccc2c1C(=O)c1c(O)c3c(c(O)c1C2=O)C[C@@](O)(C(C)=O)C[C@@H]3O[C@H]1C[C@H](N)[C@H](O)[C@H](C)O1 [DAUNORUBICIN]
Not Active: IC50 [1] | Ki [1] | IC50 [2] | Ki [2] | IC50 [3] | IC50 [4] | IC50 (Progesterone receptor) | IC50 (Cytochrome P450 2C19) | Ki (Cytochrome P450 2C19) | IC50 [5] | Ki [5]

O=C(O)c1cc(-c2ccc(F)cc2F)ccc1O [DIFLUNISAL]
Not Active: IC50 [1] | Ki [1] | IC50 [2] | Ki [2] | IC50 [3] | IC50 [4] | IC50 (Progesterone receptor) | IC50 (Cytochrome P450 2C19) | Ki (Cytochrome P450 2C19) | IC50 [5] | Ki [5]

C[S+](C)[O-] [DIMETHYL SULFOXIDE]
Not Active: IC50 [1] | Ki [1] | IC50 [2] | Ki [2] | IC50 [3] | IC50 [4] | IC50 (Progesterone receptor) | IC50 (Cytochrome P450 2C19) | Ki (Cytochrome P450 2C19) | IC50 [5] | Ki [5]

CC1=NN(c2ccccc2)C(=O)C1 [EDARAVONE]
Not Active: IC50 [1] | Ki [1] | IC50 [2] | Ki [2] | IC50 [3] | IC50 [4] | IC50 (Progesterone receptor) | IC50 (Cytochrome P450 2C19) | Ki (Cytochrome P450 2C19) | IC50 [5] | Ki [5]

CC(C)C[C@H]1C(=O)N2CCC[C@H]2[C@]2(O)O[C@](NC(=O)[C@@H]3C=C4c5cccc6[nH]cc(c56)C[C@H]4N(C)C3)(C(C)C)C(=O)N12 [ERGOCRYPTINE]
Not Active: IC50 [1] | Ki [1] | IC50 [2] | Ki [2] | IC50 [3] | IC50 [4] | IC50 (Progesterone receptor) | IC50 (Cytochrome P450 2C19) | Ki (Cytochrome P450 2C19) | IC50 [5] | Ki [5]

C[C@]12CC[C@@H]3c4ccc(O)cc4CC[C@H]3[C@@H]1C[C@@H](O)[C@@H]2O [ESTRIOL]
Not Active: IC50 [1] | Ki [1] | IC50 [2] | Ki [2] | IC50 [3] | IC50 [4] | IC50 (Progesterone receptor) | IC50 (Cytochrome P450 2C19) | Ki (Cytochrome P450 2C19) | IC50 [5] | Ki [5]

CN1CCN(c2c(F)cc3c(=O)c(C(=O)O)cn(CCF)c3c2F)CC1 [FLEROXACIN]
Not Active: IC50 [1] | Ki [1] | IC50 [2] | Ki [2] | IC50 [3] | IC50 [4] | IC50 (Progesterone receptor) | IC50 (Cytochrome P450 2C19) | Ki (Cytochrome P450 2C19) | IC50 [5] | Ki [5]

O=c1[nH]c(=O)n([C@H]2C[C@H](O)[C@@H](CO)O2)cc1F [FLOXURIDINE]
Not Active: IC50 [1] | Ki [1] | IC50 [2] | Ki [2] | IC50 [3] | IC50 [4] | IC50 (Progesterone receptor) | IC50 (Cytochrome P450 2C19) | Ki (Cytochrome P450 2C19) | IC50 [5] | Ki [5]

COC(=O)Nc1nc2cc(C(=O)c3ccc(F)cc3)ccc2[nH]1 [FLUBENDAZOLE]
Not Active: IC50 [1] | Ki [1] | IC50 [2] | Ki [2] | IC50 [3] | IC50 [4] | IC50 (Progesterone receptor) | IC50 (Cytochrome P450 2C19) | Ki (Cytochrome P450 2C19) | IC50 [5] | Ki [5]

CC(=O)OCC(=O)[C@@]1(O)CC[C@H]2[C@@H]3CCC4=CC(=O)CC[C@]4(C)[C@@]3(F)[C@@H](O)C[C@@]21C [FLUDROCORTISONE ACETATE]
Not Active: IC50 [1] | Ki [1] | IC50 [2] | Ki [2] | IC50 [3] | IC50 [4] | IC50 (Progesterone receptor) | IC50 (Cytochrome P450 2C19) | Ki (Cytochrome P450 2C19) | IC50 [5] | Ki [5]
